Results from the supplement of paper PMC12463676, “Small-molecule dissolution of stress granules by redox modulation benefits ALS models” (Nature Chemical Biology, 2025).

Tests used:
[1] = compound: O=[As]([O-])(O)O.[K+] [potassium arsenate]; experiment: thermal stability z-score vs DMSO; higher = more thermally stabilized by treatment; conditions: HeLa; arsenate concentration 1 mM
Description: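 Cellular thermal proteome profiling in HeLa cells treated with 1 mM arsenate for 1 h (DMSO pretreatment), heated to ten temperatures (37-66.3 °C). Soluble protein was quantified by TMT mass spectrometry relative to DMSO controls; the thermal stability score was transformed to a z-score; mean of n = 3 experiments.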

[2] = compound: NC(=O)CCCCC1CCSS1 [lipoamide]; experiment: as above; conditions: HeLa, lipoamide concentration 100 µM
Description: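 Cellular thermal proteome profiling in HeLa cells. Cells were treated with 100 µM lipoamide for 1 h, with or without 1 mM arsenate for a further 1 h, then heated to ten temperatures (37-66.3 °C), and soluble protein was quantified by TMT mass spectrometry relative to 0.1% DMSO controls. The thermal stability score (sum of log2 fold changes minus the abundance score) was transformed to a z-score; mean of n = 3 experiments.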

[3] = arsenate co-treatment: 1 mM arsenate 1 h
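Also: each temperature applied for 3 min, abundance score taken as mean log2 fold change at the two lowest temperatures, z-score obtained by mean subtraction and division by SD.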

Chain of UniProt P38919 (P38919 whole entry): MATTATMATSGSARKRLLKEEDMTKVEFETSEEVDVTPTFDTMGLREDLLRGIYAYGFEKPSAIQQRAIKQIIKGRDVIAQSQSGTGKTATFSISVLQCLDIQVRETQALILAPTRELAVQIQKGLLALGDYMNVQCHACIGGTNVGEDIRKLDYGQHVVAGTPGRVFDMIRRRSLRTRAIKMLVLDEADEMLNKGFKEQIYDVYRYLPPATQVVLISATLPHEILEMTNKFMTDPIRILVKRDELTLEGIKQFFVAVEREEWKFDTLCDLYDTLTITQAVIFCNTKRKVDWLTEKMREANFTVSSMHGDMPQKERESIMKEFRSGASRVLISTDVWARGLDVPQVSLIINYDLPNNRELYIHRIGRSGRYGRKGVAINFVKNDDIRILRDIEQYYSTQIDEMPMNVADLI
Chain of UniProt Q9UHD1 (Q9UHD1 whole entry): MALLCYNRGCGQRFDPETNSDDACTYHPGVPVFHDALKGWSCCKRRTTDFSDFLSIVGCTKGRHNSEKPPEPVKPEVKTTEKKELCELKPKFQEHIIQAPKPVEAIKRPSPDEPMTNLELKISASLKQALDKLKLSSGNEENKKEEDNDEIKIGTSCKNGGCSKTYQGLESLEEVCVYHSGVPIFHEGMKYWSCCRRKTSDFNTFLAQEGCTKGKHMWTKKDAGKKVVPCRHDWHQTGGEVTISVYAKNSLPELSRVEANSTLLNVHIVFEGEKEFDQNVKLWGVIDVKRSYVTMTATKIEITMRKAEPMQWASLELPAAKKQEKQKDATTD
Chain of UniProt P18074 (P18074 whole entry): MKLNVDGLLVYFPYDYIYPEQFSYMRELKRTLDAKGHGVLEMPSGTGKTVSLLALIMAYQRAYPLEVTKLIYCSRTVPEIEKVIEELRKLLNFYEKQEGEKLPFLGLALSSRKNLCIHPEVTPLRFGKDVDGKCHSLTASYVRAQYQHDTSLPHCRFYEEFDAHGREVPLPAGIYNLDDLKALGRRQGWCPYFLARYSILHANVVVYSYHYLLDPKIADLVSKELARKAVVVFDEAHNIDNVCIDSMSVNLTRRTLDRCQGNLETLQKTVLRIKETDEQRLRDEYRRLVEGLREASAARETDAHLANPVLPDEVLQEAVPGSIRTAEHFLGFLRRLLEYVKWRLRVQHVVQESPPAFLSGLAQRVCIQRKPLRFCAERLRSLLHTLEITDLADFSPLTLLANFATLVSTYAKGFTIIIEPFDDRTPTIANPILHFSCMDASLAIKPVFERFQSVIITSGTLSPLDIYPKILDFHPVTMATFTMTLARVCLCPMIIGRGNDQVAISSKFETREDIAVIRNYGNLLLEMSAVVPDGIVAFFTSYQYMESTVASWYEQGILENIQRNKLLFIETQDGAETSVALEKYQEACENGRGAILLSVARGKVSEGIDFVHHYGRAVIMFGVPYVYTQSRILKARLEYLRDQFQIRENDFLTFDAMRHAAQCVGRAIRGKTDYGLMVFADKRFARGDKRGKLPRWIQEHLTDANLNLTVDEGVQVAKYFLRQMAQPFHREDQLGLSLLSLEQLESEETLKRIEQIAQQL
Chain of UniProt P00533 (P00533 whole entry): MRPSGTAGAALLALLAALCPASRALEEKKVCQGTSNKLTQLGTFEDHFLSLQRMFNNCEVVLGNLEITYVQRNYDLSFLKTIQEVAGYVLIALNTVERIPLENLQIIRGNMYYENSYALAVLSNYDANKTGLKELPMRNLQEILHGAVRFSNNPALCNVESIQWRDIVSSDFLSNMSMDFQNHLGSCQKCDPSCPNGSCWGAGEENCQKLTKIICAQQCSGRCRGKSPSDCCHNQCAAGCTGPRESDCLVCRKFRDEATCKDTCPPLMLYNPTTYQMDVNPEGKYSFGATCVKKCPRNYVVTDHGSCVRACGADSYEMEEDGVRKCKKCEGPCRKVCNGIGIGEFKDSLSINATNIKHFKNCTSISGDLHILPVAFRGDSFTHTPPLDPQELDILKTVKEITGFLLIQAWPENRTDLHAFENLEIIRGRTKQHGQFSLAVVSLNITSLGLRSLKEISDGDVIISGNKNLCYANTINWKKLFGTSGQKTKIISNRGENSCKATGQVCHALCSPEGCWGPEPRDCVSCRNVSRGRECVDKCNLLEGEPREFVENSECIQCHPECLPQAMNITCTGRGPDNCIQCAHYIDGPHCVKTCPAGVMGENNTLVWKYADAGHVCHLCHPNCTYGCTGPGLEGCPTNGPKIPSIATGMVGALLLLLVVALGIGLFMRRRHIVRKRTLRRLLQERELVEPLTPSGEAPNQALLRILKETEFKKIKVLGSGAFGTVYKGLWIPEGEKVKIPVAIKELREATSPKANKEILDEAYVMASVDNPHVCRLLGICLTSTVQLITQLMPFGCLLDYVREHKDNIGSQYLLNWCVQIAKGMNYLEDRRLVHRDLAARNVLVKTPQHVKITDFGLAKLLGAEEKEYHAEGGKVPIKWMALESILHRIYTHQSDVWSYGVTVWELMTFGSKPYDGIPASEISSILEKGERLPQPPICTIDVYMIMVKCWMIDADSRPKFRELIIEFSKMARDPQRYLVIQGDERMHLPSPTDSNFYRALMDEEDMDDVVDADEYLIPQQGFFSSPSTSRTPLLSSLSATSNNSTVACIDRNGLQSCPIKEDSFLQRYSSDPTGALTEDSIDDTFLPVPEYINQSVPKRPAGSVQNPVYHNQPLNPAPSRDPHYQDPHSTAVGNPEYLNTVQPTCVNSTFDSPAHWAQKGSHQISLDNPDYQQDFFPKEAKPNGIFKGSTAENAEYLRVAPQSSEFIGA
Chain of UniProt Q96P11 (Q96P11 whole entry): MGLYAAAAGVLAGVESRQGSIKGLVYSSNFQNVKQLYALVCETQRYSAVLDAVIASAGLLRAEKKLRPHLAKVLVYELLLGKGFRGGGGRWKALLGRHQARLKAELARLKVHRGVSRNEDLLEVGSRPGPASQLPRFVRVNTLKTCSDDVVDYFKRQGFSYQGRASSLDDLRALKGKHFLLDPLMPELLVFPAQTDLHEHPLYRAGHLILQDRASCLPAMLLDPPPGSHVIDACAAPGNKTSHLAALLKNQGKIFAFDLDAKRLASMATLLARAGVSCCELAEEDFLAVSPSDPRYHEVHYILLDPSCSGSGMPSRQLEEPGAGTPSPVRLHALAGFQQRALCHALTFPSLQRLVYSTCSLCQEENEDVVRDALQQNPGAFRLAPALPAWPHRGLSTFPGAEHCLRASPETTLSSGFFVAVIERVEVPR
Chain of UniProt O15498 (O15498 whole entry): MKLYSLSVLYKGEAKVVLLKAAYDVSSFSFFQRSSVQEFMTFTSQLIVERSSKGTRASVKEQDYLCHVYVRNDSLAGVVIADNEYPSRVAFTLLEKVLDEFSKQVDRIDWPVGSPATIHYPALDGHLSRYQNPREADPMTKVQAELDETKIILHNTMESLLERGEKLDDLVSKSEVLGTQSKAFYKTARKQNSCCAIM
Chain of UniProt P0DPD6 (P0DPD6 whole entry): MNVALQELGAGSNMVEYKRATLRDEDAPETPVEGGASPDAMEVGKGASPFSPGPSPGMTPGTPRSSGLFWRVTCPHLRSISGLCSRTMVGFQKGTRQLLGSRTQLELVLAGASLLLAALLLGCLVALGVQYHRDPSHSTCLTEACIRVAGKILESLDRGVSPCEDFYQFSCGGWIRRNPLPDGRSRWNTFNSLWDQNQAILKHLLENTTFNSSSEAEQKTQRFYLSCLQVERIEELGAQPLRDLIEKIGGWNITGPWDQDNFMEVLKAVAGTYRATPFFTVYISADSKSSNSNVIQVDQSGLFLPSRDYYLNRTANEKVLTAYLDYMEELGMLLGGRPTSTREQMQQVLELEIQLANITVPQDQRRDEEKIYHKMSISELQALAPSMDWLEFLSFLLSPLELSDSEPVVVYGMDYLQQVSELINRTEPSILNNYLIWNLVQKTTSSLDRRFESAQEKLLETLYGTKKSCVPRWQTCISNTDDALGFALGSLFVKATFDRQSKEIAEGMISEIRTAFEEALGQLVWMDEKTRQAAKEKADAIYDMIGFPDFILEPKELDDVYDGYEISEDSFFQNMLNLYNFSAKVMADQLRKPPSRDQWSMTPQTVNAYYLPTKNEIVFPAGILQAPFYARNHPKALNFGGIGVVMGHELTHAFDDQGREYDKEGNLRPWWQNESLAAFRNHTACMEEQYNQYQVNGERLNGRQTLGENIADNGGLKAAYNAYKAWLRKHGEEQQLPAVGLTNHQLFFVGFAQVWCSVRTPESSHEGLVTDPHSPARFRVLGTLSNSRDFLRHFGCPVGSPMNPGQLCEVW
Chain of UniProt Q9UBK9 (Q9UBK9 whole entry): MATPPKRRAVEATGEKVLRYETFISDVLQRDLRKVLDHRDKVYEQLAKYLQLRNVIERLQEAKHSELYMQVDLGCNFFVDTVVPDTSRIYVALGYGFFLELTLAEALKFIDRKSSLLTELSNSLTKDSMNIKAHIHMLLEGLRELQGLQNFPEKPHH
Chain of UniProt Q9BPZ7 (Q9BPZ7 whole entry): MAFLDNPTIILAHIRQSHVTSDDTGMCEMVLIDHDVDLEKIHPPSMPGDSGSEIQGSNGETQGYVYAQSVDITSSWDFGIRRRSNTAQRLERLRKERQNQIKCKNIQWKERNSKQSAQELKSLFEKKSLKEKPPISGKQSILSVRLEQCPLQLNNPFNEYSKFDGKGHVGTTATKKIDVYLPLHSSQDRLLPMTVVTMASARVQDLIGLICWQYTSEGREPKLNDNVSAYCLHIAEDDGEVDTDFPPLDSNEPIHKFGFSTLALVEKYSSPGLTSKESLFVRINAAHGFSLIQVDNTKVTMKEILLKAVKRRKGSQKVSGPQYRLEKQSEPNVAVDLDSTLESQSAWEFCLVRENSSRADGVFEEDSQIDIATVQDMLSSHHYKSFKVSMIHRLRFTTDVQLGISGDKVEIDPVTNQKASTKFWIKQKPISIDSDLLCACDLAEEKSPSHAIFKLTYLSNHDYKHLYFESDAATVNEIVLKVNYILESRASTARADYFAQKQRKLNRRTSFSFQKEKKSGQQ
Chain of UniProt Q86WQ0 (Q86WQ0 whole entry): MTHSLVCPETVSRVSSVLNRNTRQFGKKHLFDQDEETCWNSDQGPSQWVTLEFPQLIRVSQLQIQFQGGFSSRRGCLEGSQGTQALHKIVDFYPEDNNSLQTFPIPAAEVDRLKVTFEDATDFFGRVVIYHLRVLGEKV

| Target | thermal stability z-score [1] | thermal stability z-score [2, 3] | thermal stability z-score ([2]; arsenate co-treatment: none) |
| --- | --- | --- | --- |
| AKAP8 (UniProt O43823) | -0.946 | 0.701 | -0.426 |
| OAT (UniProt P04181) | 3.08 | -0.684 | -0.588 |
| HSPA9 (UniProt P38646) | -1.36 | -1.1 | -0.531 |
| TXNRD1 (UniProt Q16881) | 4.21 | 1.24 | 1.25 |
| NSUN5 (UniProt Q96P11) | 0.136 | 0.469 | -0.155 |
| MAPK14 (UniProt Q16539) | 0.772 | 0.87 | -0.0481 |
| DDX1 (UniProt Q92499) | -0.304 | 0.085 | 0.274 |
| SP1 (UniProt P08047) | 0.789 | -0.0425 | -0.199 |
| AES (UniProt Q08117) | 0.378 | 0.656 | 0.111 |
| TXNDC17 (UniProt Q9BRA2) | 0.728 | 0.493 | 0.408 |
| ITGA1 (UniProt P56199) | -0.126 | 0.216 | 0.171 |
| CHORDC1 (UniProt Q9UHD1) | -0.23 | 0.149 | 0.043 |
| CHD6 (UniProt Q8TD26) | -0.0483 | -8.33e-05 | -0.00133 |
| TLCD1 (UniProt Q96CP7) | 0.587 | -0.0961 | -0.035 |
| AMFR (UniProt Q9UKV5) | 0.444 | -0.269 | -0.845 |
| MAPKAP1 (UniProt Q9BPZ7) | 0.0626 | 0.13 | -0.0501 |
| ABCC4 (UniProt O15439) | -0.0795 | 0.622 | 0.731 |
| RCHY1 (UniProt Q96PM5) | -0.571 | -0.131 | -0.0834 |
| ERCC2 (UniProt P18074) | 0.0533 | 0.408 | 0.701 |
| XIAP (UniProt P98170) | -0.747 | -0.12 | -0.0464 |
| YDJC (UniProt A8MPS7) | -1.04 | -0.851 | -1.66 |
| ECE2 (UniProt P0DPD6) | -0.104 | -0.0621 | 0.0487 |
| GCLM (UniProt P48507) | 2.05 | 1.62 | 0.394 |
| RNPS1 (UniProt Q15287) | 0.528 | 1.23 | 0.438 |
| ASH2L (UniProt Q9UBL3) | -1.84 | 0.566 | -0.319 |
| DNM1L (UniProt O00429) | 0.237 | -0.508 | 0.234 |
| GATB (UniProt O75879) | 0.0266 | 0.0276 | 0.115 |
| WDR82 (UniProt Q6UXN9) | -0.75 | 0.88 | -0.211 |

| Target | thermal stability z-score [1] | thermal stability z-score [2, 3] | thermal stability z-score ([2]; arsenate co-treatment: none) |
| --- | --- | --- | --- |
| PSME3 (UniProt P61289) | 0.504 | 0.957 | 0.849 |
| WTAP (UniProt Q15007) | -0.059 | 0.0767 | 0.0181 |
| IMUP (UniProt Q9GZP8) | 0.162 | -0.123 | -0.141 |
| B3GALNT2 (UniProt Q8NCR0) | -1.27 | -0.788 | -0.394 |
| OVCA2 (UniProt Q8WZ82) | -0.0892 | -0.0187 | 0.0328 |
| TBC1D23 (UniProt Q9NUY8) | 0.407 | -0.408 | -0.264 |
| PBXIP1 (UniProt Q96AQ6) | -0.357 | -3.02 | -2.69 |
| ANKMY2 (UniProt Q8IV38) | 0.0818 | 0.0659 | 0.00957 |
| NR2C2AP (UniProt Q86WQ0) | 0.17 | -0.149 | -0.255 |
| EEFSEC (UniProt P57772) | -0.884 | -0.771 | 0.715 |
| ACTR3 (UniProt P61158) | -0.483 | -0.149 | 0.128 |
| HOOK1 (UniProt Q9UJC3) | -0.199 | -1.15 | -0.591 |
| WDR19 (UniProt Q8NEZ3) | 0.81 | -0.121 | 0.369 |
| EIF2B3 (UniProt Q9NR50) | 0.582 | -0.44 | 0.0579 |
| RAB6A (UniProt P20340) | 0.284 | 0.448 | 0.693 |
| EIF4A3 (UniProt P38919) | -0.492 | -0.155 | 0.154 |
| CHMP4B (UniProt Q9H444) | -0.176 | 0.0919 | 0.359 |
| SMPD2 (UniProt O60906) | -0.382 | -0.297 | -0.186 |
| YKT6 (UniProt O15498) | -0.597 | -0.198 | 0.453 |
| RCC1 (UniProt P18754) | -0.548 | -0.231 | -0.0308 |
| UXT (UniProt Q9UBK9) | 0.352 | 0.497 | 0.378 |
| UXS1 (UniProt Q8NBZ7) | 0.198 | 0.238 | 0.551 |
| KIF2A (UniProt O00139) | -0.0587 | -0.584 | -0.0403 |
| HTT (UniProt P42858) | 0.319 | 0.301 | -0.0612 |
| UBXN4 (UniProt Q92575) | -0.265 | -0.125 | -0.121 |
| EGFR (UniProt P00533) | -1.02 | -1.07 | -0.989 |
| EXOC6 (UniProt Q8TAG9) | -0.201 | -0.242 | -0.374 |
